Experimental findings from paper PMC8007111, “Novel Potent Muscarinic Receptor Antagonists: Investigation on the Nature of Lipophilic Substituents in the 5- and/or 6-Positions of the 1,4-Dioxane Nucleus” (Journal of Medicinal Chemistry, 2020) are described below.

The structures appear in SMILES notation.

One assay addresses T1, hM3 mAChR (Homo sapiens, UniProt P20309).
T1 construct: expressed in transfected cells; host or cells: CHO-K1 (membrane preparation)
Nature of the assay: [3H]NMS inhibition radioligand binding, hM3 in CHO-K1 cell membranes.

The target in another assay is T2, hM5 mAChR (Homo sapiens, UniProt P08912).
T2 construct: expressed in transfected cells; host or cells: CHO-K1 (membrane preparation)
T2 sequence (P08912 1-532): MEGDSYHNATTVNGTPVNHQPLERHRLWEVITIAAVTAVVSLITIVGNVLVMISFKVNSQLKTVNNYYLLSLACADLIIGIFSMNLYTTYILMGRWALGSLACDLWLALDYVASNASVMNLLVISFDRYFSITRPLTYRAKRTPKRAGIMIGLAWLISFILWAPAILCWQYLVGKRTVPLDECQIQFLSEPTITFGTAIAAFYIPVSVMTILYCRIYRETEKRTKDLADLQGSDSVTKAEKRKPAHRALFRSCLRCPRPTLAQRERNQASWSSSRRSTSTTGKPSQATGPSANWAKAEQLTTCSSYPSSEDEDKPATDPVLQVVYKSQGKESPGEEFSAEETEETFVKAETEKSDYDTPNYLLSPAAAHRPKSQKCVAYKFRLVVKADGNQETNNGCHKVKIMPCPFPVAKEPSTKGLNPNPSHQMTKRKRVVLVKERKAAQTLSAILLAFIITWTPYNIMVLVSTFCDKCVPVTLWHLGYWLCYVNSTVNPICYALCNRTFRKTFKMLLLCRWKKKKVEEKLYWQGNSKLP
The assay can be described thus: [3H]NMS inhibition radioligand binding, hM5 in CHO-K1 cell membranes. The note with it: [3H]NMS, CHO-K1 cell membranes; mean ± S.E.M.

The test system of assay [1] is MSCs from mouse bone marrow. The assay can be described thus: MSC viability (MTS assay), dose-response. In kind it is cell-based. The note with it: 24 h. As to the method: It is well established that bone marrow MSC behavior is influenced by a variety of signaling systems. In context, cholinergic intramural stimuli and, in particular, muscarinic signals orchestrate MSCs viability and commitment.[11],[12] Considering also the pluripotent MSC nature and their contribution to bone, blood, and systemic homeostasis,[53] viability studies on MSCs were performed to determine the functional profile of 3b, the most interesting compound in this series. […] Successively, the efficacy of 3b in contrasting cell viability induced by the well-known mAChR agonist carbachol was evaluated. […] Further research on the intracellular mechanistic outcomes of 3b on MSCs remains mandatory.
The in vitro studies were performed by using bone marrow MSCs as a model. […] After 2 weeks of initiating culture, cells were washed with PBS, detached by trypsinization, counted, and plated at the density of 5,000 cells/well in 96 culture plates (Costar Corp., Milano, Italy) in DMEM containing 10% HIFCS, penicillin, and streptomycin.
MSCs were treated with compound 3b (from 10^–4 to 10^–10 M) for 24 h. […] At the end of each procedure, the MSCs viability was measured by MTS assay. […] The quantity of the formazan product was directly proportional to the number of living cells in culture. The colored formazan was measured by reading the absorbance at 490 nm using a […] plate reader.
Background: Formazan colour is commonly taken as a measure of viable cells.

T1 sequence (P20309 whole entry): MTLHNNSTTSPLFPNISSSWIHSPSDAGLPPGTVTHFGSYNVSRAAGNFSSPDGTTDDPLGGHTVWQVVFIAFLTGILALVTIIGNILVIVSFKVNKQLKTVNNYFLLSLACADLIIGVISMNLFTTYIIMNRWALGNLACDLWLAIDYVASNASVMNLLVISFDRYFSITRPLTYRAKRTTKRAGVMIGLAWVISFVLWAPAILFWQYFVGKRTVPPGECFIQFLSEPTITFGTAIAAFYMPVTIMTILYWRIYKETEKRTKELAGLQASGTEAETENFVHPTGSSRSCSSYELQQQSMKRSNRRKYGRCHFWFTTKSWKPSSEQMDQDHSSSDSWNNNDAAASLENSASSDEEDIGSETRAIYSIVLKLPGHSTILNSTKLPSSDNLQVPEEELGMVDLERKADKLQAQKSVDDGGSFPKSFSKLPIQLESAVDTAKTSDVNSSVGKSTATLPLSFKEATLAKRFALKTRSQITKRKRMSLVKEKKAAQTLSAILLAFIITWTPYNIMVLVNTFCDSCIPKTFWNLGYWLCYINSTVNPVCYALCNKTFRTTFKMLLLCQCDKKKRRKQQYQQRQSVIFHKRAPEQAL

As for `C[N+](C)(C)C[C@@H]1COC[C@](c2ccccc2)(C2CCCCC2)O1.[I-]` (relative stereo) [3b, 1-((2R*,6R*)-6-Cyclohexyl-6-phenyl-1,4-dioxan-2-yl)-N,N,N-trimethylmethanaminium Iodide], the “pKi hM3” value at hM3 mAChR ([3H]NMS, CHO-K1 cell membranes, mean ± S.E.M.) was 9.07 ± 0.03. Further, the M3/M2 selectivity ratio at hM3 mAChR (from binding affinities at hM3 and hM2) was 14.5. Besides, at hM5 mAChR, the “pKi hM5” value is reported as 8.41 ± 0.1. Moreover, the “effect on MSCs viability” value in assay [1] (high concentration (10^–4 M)) is recorded as “down-regulate MSCs viability”; in assay [1] (low concentration (10^–10 M)) it was “increased cell viability”.
